According to patent publication US12622910B2, “Inhibitors of Bruton's tyrosine kinase and methods of their use” (Janssen Pharmaceutica NV, priority 2021, dated 2026):

Assays:
beta 1 (h) = beta 1 (h) (Homo sapiens, UniProt P08588); experiment: Receptor panel, Study 1; format: binding
Protocol: (§1) RESULTS AND DISCUSSION—Selectivity—The compound of Formula (III) was evaluated in three selectivity panels to assess the potential for off-target pharmacology (Table 8). […] The kinase off-target profile of The compound of Formula (III) was assessed in a full human wild-type panel using radiometric kinase activity assays (KinaseProfiler™ and IC50Profiler™; Eurofins Scientific) (Table 9; FIG. 23). The compound of Formula (III) inhibited 4/278 kinases >50% at 1 micromolar, identifying BTK and the three other kinases having analogous Cys residues with the potential for covalent inhibition (BMX, TEC, BLK). […]. The cellular kinase selectivity of The compound of Formula (III) was established in native Ramos B cell kinome assays (KiNativ™; ActivX) confirmed BTK as the primary target with inhibition of BLK and TEC inhibition detected (Table 10).

SK^+Ca channel = experiment: Receptor panel, Study 1; format: binding
Protocol: as §1

BZD (central) = experiment: Receptor panel, Study 1; format: binding
Protocol: as §1

AT1 (h) = AT1 (h) (Homo sapiens, UniProt P30556); experiment: Receptor panel, Study 1; format: binding
Protocol: as §1

Ca^2+ channel = experiment: Receptor panel, Study 1; format: binding
Protocol: as §1

GAL2 (h) = GAL2 (h) (Homo sapiens, UniProt O43603); experiment: Receptor panel, Study 1; format: binding
Protocol: as §1

M3 (h) = M3 (h) (Homo sapiens, UniProt P20309); experiment: Receptor panel, Study 1; format: binding
Protocol: as §1

Cl^− channel = experiment: Receptor panel, Study 1; format: binding
Protocol: as §1

VIP1 (h) (VPAC1) = VIP1 (h) (VPAC1) (Homo sapiens, UniProt P32241); experiment: Receptor panel, Study 1; format: binding
Protocol: as §1

D1 (h) = D1 (h) (Homo sapiens, UniProt P21728); experiment: Receptor panel, Study 1; format: binding
Sequence of D1 (h) (P21728 whole entry): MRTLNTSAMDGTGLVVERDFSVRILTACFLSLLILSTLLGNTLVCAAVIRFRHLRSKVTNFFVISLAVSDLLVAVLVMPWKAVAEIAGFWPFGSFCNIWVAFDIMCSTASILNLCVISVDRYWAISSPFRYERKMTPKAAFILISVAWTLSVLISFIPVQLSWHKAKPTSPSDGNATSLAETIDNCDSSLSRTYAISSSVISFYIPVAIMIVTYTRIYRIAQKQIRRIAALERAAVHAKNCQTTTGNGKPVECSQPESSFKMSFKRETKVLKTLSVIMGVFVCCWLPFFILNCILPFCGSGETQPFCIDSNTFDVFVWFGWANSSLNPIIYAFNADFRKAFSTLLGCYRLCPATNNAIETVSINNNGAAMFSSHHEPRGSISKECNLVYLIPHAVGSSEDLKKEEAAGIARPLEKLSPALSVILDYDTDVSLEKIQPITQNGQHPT
Protocol: as §1

GABA = experiment: Receptor panel, Study 1; format: binding
Protocol: as §1

A1 (h) = A1 (h) (Homo sapiens, UniProt P30542); experiment: Receptor panel, Study 1; format: binding
Protocol: as §1

CXCR2 (h) (IL-8B) = CXCR2 (h) (IL-8B) (Homo sapiens, UniProt P25025); experiment: Receptor panel, Study 1; format: binding
Sequence of CXCR2 (h) (IL-8B) (P25025 whole entry): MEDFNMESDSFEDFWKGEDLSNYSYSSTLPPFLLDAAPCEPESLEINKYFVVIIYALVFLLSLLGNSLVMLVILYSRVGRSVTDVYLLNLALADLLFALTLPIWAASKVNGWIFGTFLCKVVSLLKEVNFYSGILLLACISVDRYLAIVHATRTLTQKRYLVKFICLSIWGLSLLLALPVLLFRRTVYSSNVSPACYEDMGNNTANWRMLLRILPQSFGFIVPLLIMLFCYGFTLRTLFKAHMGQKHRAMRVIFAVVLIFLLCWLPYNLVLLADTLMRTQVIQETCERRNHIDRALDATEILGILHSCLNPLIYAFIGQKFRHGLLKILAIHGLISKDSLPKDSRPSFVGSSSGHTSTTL
Protocol: as §1

B2 (h) = B2 (h) (Homo sapiens, UniProt P30411); experiment: Receptor panel, Study 1; format: binding
Protocol: as §1

NT1 (h) (NTS1) = NT1 (h) (NTS1) (Homo sapiens, UniProt P30989); experiment: Receptor panel, Study 1; format: binding
Sequence of NT1 (h) (NTS1) (P30989 whole entry): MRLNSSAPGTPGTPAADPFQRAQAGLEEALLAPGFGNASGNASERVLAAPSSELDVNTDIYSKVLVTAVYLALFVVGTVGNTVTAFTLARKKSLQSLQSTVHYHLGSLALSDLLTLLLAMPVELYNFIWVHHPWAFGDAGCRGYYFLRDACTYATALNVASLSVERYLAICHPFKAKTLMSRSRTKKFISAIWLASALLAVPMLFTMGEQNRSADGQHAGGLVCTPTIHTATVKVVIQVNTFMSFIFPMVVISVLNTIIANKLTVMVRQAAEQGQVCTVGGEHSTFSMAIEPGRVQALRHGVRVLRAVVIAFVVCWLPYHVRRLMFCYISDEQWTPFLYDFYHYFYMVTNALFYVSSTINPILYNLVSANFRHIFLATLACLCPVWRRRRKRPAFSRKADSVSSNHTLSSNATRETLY
Protocol: as §1

DA transporter (h) = DA transporter (h) (Homo sapiens, UniProt Q01959); experiment: Receptor panel, Study 1; format: binding
Protocol: as §1

H2 (h) = H2 (h) (Homo sapiens, UniProt P25021); experiment: Receptor panel, Study 1; format: binding
Protocol: as §1

CCR1 (h) = CCR1 (h) (Homo sapiens, UniProt P32246); experiment: Receptor panel, Study 1; format: binding
Protocol: as §1

K^+V channel = experiment: Receptor panel, Study 1; format: binding
Protocol: as §1

Y1 (h) = Y1 (h) (Homo sapiens, UniProt P25929); experiment: Receptor panel, Study 1; format: binding
Sequence of Y1 (h) (P25929 whole entry): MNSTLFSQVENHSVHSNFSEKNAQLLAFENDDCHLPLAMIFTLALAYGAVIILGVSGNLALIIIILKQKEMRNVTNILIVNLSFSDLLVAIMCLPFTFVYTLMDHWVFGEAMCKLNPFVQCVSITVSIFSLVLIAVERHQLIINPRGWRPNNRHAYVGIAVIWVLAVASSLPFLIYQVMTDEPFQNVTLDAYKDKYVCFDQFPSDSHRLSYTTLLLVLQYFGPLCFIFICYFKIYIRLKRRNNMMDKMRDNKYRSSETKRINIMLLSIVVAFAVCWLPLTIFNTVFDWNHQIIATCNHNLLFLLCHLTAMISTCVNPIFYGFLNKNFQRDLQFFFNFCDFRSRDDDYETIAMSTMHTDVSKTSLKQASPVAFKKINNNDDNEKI
Protocol: as §1

delta 2(h) (DOP) = delta 2(h) (DOP) (Homo sapiens, UniProt P41143); experiment: Receptor panel, Study 1; format: binding
Protocol: as §1

5-HT6 (h) = 5-HT6 (h) (Homo sapiens, UniProt P50406); experiment: Receptor panel, Study 1; format: binding
Protocol: as §1

alpha 2 = experiment: Receptor panel, Study 1; format: binding
Protocol: as §1

A2A (h) = A2A (h) (Homo sapiens, UniProt P29274); experiment: Receptor panel, Study 1; format: binding
Sequence of A2A (h) (P29274 whole entry): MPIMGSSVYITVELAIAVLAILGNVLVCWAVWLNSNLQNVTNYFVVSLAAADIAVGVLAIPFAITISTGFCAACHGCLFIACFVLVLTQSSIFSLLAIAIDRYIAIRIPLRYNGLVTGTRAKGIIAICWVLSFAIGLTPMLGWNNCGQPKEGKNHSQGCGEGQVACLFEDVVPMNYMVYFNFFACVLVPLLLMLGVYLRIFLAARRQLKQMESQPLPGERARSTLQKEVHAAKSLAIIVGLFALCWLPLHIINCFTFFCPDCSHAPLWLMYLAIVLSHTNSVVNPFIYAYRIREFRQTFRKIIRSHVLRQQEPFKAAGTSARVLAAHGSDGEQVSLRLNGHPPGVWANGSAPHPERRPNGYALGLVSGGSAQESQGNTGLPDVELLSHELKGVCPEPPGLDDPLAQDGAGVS
Protocol: as §1

ORL1 (h) (NOP) = ORL1 (h) (NOP) (Homo sapiens, UniProt P41146); experiment: Receptor panel, Study 1; format: binding
Sequence of ORL1 (h) (NOP) (P41146 whole entry): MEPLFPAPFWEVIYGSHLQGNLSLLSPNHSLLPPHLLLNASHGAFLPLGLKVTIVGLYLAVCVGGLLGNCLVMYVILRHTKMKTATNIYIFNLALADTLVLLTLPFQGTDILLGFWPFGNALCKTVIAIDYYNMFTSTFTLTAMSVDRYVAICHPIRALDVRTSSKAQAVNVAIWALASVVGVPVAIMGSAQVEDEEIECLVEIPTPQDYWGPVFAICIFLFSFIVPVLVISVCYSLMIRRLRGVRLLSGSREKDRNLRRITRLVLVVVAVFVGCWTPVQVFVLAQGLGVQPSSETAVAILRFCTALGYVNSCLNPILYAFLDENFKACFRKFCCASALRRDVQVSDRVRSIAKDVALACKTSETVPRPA
Protocol: as §1

sst (non-selective) = experiment: Receptor panel, Study 1; format: binding
Protocol: as §1

Y2 (h) = Y2 (h) (Homo sapiens, UniProt P49146); experiment: Receptor panel, Study 1; format: binding
Sequence of Y2 (h) (P49146 whole entry): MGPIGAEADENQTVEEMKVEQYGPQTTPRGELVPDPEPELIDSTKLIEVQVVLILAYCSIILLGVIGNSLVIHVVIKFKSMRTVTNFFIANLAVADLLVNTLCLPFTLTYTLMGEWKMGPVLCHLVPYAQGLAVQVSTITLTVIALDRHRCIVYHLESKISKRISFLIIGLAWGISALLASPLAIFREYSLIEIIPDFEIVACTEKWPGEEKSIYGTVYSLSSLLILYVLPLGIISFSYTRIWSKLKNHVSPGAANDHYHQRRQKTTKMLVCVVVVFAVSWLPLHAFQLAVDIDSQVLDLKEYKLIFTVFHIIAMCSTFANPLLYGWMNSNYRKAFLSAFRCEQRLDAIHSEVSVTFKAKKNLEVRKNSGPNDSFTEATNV
Protocol: as §1

Na^+ channel (site 2) = experiment: Receptor panel, Study 1; format: binding
Protocol: as §1

M1 (h) = M1 (h) (Homo sapiens, UniProt P11229); experiment: Receptor panel, Study 1; format: binding
Sequence of M1 (h) (P11229 whole entry): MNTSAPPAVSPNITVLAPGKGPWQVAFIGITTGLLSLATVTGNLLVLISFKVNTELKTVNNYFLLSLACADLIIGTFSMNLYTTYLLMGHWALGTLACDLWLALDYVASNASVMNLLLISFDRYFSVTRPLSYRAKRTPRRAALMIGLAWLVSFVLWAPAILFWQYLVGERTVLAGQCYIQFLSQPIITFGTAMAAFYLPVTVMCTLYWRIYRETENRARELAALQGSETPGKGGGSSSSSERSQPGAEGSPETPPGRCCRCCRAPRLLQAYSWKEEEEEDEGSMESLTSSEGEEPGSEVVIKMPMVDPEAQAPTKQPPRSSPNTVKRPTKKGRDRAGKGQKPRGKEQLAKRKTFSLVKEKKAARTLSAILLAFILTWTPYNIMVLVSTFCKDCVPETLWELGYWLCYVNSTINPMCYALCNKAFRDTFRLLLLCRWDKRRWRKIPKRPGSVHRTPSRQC
Protocol: as §1

NE transporter (h) = NE transporter (h) (Homo sapiens, UniProt P23975); experiment: Receptor panel, Study 1; format: binding
Sequence of NE transporter (h) (P23975 whole entry): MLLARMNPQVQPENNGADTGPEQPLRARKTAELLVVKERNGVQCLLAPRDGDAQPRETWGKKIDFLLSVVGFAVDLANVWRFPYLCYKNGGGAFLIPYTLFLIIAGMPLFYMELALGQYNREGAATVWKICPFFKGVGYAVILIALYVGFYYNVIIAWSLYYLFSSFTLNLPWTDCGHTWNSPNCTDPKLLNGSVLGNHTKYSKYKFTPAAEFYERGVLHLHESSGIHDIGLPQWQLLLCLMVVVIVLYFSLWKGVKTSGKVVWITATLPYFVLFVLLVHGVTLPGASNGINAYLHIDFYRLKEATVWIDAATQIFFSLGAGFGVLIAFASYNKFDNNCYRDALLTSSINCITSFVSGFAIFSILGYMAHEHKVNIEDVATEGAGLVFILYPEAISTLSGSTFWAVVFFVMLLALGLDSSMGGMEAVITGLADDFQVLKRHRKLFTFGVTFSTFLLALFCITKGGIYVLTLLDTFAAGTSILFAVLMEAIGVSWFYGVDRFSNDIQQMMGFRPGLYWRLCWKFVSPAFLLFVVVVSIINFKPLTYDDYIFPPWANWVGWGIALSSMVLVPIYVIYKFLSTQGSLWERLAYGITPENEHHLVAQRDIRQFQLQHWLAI
Protocol: as §1

alpha 1 = experiment: Receptor panel, Study 1; format: binding
Protocol: as §1

CCKA (h) (CCK1) = CCKA (h) (CCK1) (Homo sapiens, UniProt P32238); experiment: Receptor panel, Study 1; format: binding
Protocol: as §1

MC4 (h) = MC4 (h) (Homo sapiens, UniProt P32245); experiment: Receptor panel, Study 1; format: binding
Protocol: as §1

kappa (KOP) = experiment: Receptor panel, Study 1; format: binding
Protocol: as §1

A3 (h) = A3 (h) (Homo sapiens, UniProt P0DMS8); experiment: Receptor panel, Study 1; format: binding
Sequence of A3 (h) (P0DMS8 whole entry): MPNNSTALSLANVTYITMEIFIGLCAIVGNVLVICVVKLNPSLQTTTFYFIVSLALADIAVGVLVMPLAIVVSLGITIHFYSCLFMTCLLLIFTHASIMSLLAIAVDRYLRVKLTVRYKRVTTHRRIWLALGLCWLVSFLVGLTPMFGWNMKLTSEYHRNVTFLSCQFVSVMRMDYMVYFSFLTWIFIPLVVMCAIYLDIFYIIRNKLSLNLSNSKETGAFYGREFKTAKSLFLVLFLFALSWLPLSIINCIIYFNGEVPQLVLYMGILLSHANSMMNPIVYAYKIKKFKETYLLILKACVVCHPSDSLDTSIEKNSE
Protocol: as §1

NK2 (h) = NK2 (h) (Homo sapiens, UniProt P21452); experiment: Receptor panel, Study 1; format: binding
Sequence of NK2 (h) (P21452 whole entry): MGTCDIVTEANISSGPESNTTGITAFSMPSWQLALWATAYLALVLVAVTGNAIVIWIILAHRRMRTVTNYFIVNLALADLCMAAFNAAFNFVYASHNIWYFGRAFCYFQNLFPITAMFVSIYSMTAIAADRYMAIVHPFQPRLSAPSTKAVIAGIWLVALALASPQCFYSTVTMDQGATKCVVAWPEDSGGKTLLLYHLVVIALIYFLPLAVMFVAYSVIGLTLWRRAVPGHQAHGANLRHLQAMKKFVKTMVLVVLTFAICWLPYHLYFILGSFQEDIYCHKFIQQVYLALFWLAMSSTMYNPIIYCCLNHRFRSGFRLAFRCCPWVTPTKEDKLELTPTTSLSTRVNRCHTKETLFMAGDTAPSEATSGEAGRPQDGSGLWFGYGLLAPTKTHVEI
Protocol: as §1

ETA (h) = ETA (h) (Homo sapiens, UniProt P25101); experiment: Receptor panel, Study 1; format: binding
Protocol: as §1

5-HT5A (h) = 5-HT5A (h) (Homo sapiens, UniProt P47898); experiment: Receptor panel, Study 1; format: binding
Protocol: as §1

MT1 (h) = MT1 (h) (Homo sapiens, UniProt P48039); experiment: Receptor panel, Study 1; format: binding
Sequence of MT1 (h) (P48039 whole entry): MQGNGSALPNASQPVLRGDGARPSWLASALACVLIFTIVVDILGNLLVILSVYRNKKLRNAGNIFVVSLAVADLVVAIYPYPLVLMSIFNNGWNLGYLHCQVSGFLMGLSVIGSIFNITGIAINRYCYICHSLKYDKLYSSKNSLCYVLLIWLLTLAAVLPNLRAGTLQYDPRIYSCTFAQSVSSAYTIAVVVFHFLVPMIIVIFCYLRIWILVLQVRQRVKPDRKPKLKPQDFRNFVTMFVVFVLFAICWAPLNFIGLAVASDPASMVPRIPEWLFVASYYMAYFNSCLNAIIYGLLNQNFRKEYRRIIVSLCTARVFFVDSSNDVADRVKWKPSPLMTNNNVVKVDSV
Protocol: as §1

B-cell activation = experiment: Inhibition of B-cell activation after dosing (FIG. 22); format: in vivo; details: 2, 3, and 10 mg/kg, at 8 hours
Description: Data represent mean±SEM (n=3/group).

`C=CC(=O)N[C@H]1CCC[C@H]1NC(=O)c1sc2nccc3c2c1NC(=O)N3c1cnc(CC(C)C)cc1C` (atropisomer, axis not shown) [compound of Formula (III), N-((1R,2S)-2-Acrylamidocyclopentyl)-5-(S)-(6-isobutyl-4-methylpyridin-3-yl)-4-oxo-4,5-dihydro-3H-1-thia-3,5,8-triazaacenaphthylene-2-carboxamide] was tested, and the inhibition at 10 µM (beta 1 (h)) was under 10%, the “% Inhibition at 10 μM” value (SK^+Ca channel) was “— (no inhibition observed)” and the “% Inhibition at 10 μM” value (BZD (central)) was “— (no inhibition observed)”. For the same compound, the inhibition at 10 µM (AT1 (h)) was under 10%, the “% Inhibition at 10 μM” value (Ca^2+ channel) was “— (no inhibition observed)” and the inhibition at 10 µM (GAL2 (h)) was under 10%. For the same compound, the inhibition at 10 µM (M3 (h)) was under 10%, the “% Inhibition at 10 μM” value (Cl^− channel) was 25.1% and the inhibition at 10 µM (VIP1 (h) (VPAC1)) was under 10%. For the same compound, the inhibition at 10 µM (D1 (h)) was under 10%, the “% Inhibition at 10 μM” value (GABA) was “— (no inhibition observed)” and the inhibition at 10 µM (A1 (h)) was under 10%. It also gave an inhibition at 10 µM (CXCR2 (h) (IL-8B)) of under 10%, an inhibition at 10 µM (B2 (h)) of under 10% and an inhibition at 10 µM (NT1 (h) (NTS1)) of under 10%. It also gave an inhibition at 10 µM (DA transporter (h)) of under 10%, an inhibition at 10 µM (H2 (h)) of under 10% and an inhibition at 10 µM (CCR1 (h)) of under 10%. The “% Inhibition at 10 μM” value (K^+V channel) was 12.2%, the inhibition at 10 µM (Y1 (h)) was 44.4% and the inhibition at 10 µM (delta 2(h) (DOP)) was under 10%. The inhibition at 10 µM (5-HT6 (h)) was under 10%, the “% Inhibition at 10 μM” value (alpha 2) was “— (no inhibition observed)” and the inhibition at 10 µM (A2A (h)) was under 10%. The inhibition at 10 µM (ORL1 (h) (NOP)) was 14.6%, the “% Inhibition at 10 μM” value (sst (non-selective)) was “— (no inhibition observed)” and the inhibition at 10 µM (Y2 (h)) was under 10%. For the same compound, the “% Inhibition at 10 μM” value (Na^+ channel (site 2)) was “— (no inhibition observed)”, the inhibition at 10 µM (M1 (h)) was under 10% and the inhibition at 10 µM (NE transporter (h)) was under 10%. For the same compound, the “% Inhibition at 10 μM” value (alpha 1) was “— (no inhibition observed)”, the inhibition at 10 µM (CCKA (h) (CCK1)) was 23.7% and the inhibition at 10 µM (MC4 (h)) was under 10%. For the same compound, the “% Inhibition at 10 μM” value (kappa (KOP)) was “— (no inhibition observed)”, the inhibition at 10 µM (A3 (h)) was under 10% and the inhibition at 10 µM (NK2 (h)) was 16%. The inhibition at 10 µM (ETA (h)) was under 10%, the inhibition at 10 µM (5-HT5A (h)) was under 10% and the inhibition at 10 µM (MT1 (h)) was 13.4%. The “inhibition ratio of B-cell activation” value (B-cell activation) was at least 78%.
